Experimental findings from a melting point compilation (Tetko et al.; mined from patent text by program, amines drawn as free bases though some values may be those of a salt) are described below.

Broadly, the melting point is the temperature, or range, at which the solid turns liquid.

Turning to `COc1ccc(CCCC2SC(=O)NC2=O)c2ccc(=O)n(C)c12` (configuration not stated), the melting point fell in the range of 172 to 175 °C.
Next, `COc1cc(C(C)=O)ccc1OCCCN1CCN(n2ncc3ccc(F)cc32)CC1`: 135 to 137 °C; `CCOc1ccc(F)cc1C1OC(=O)NC1=O` (configuration not stated): 188 to 190 °C; `CCOCc1nc2c(N)nc3cc(OCCCCCCNS(C)(=O)=O)ccc3c2n1CC(C)(C)NS(C)(=O)=O`: 176 to 180 °C.
`COc1ccc(S(=O)(=O)Nc2nc(-c3cccc4ccccc34)cs2)cc1OC` had a melting point of 132 to 133 °C.
Turning to `CC(O)(c1ccc(Oc2ccccc2)cc1)C1SCSCS1` (configuration not stated), the melting point was in the range of 70 to 71 °C.
Take `CC(C)(C)[S@@](=O)NC1(c2ccc3c(C(F)(F)F)c(O[C@H]4CC[C@H](C(C)(C)C)CC4)ccc3c2)COC1`: the melting point is 86.8 to 90 °C.
Next, `COc1c(Cl)cc(Cn2c(S)nc3ccccc32)cc1Cl`: 217 to 218 °C.
Next, `CCN1C(=O)C(C)(C)C(=O)N(C)c2cc(CN(CCn3ccc4oc(C)cc4c3=O)Cc3cncn3C)ccc21`: 106 to 108 °C; `N#Cc1cccc(S(=O)(=O)N2c3ccccc3C[C@H]2C(=O)NCCc2ccccc2)c1`: 50 °C.
To `CC(C)OCc1nc2nccnc2c(=O)[nH]1` belongs 198 to 199 °C; to `C(#Cc1ccc2[nH]ccc2c1)CCN1CCC(Cc2ccccc2)CC1`, 165 to 166 °C; to `CCCC1=C(C(=O)OC)C(c2ccccc2Cl)c2c[nH]nc2N1` (configuration not stated), 203 to 207 °C.
The compound `COCCOc1c(C)cc(-c2nc3cc(OC)cc(OC)c3c(=O)[nH]2)cc1C` gave a melting point of 201 to 202 °C.
For the compound `Cc1nn(-c2ccc(C(F)(F)F)cn2)cc1COc1cc(/C=C/C(=O)O)n(C)n1`, the melting point was in the range of 208 to 209 °C.
To `CCN(c1cc2c3c(c1)CCCC3CCC2)c1ncc(C(=O)O)cn1` belongs 252 to 253 °C; to `CCOC(=O)CC[C@H](NC(=O)c1cc(CCCc2coc3nc(N)nc(N)c23)cs1)C(=O)OCC`, 79 to 80 °C; to `CCc1cc(OCc2ccc(-c3ccccc3-c3nnn(C(c4ccccc4)(c4ccccc4)c4ccccc4)n3)cc2)c2nc(OCC=O)ccc2n1`, 168 to 169 °C.
To `CCOc1ccc(-c2nc(-c3cccc(C#N)n3)cs2)cc1OCC` belongs 134 to 136 °C.
`CNc1ncc2cc(-c3c(Cl)cccc3Cl)c(=O)n(C)c2n1` had a melting point of 243 to 244 °C.
Next, `CCCCc1oc2ccccc2c1C(=O)Nc1ccc2c(Br)c(OC(Cc3ccccc3)C(=O)O)ccc2c1` (configuration not stated): 191 to 195 °C; `COc1ccc(/C=C/c2c(Cl)cncc2Cl)c2c1OCCCO2`: 118 to 120 °C.
Turning to `COC(=O)N[C@H](C(=O)N[C@@H](Cc1ccccc1)[C@@H](O)CN(Cc1ccc(-c2cncs2)cc1)NC(=O)OC(C)(C)C)C(C)C`, the melting point was 114 to 115 °C.
To `CCC(=O)NCC=C1CCc2ccc3nc(CCCCc4ccccc4)oc3c21` belongs 111 to 113 °C.
To `CCN1c2ncc(C=O)cc2C(=O)N(C)c2ccc(F)nc21` belongs 133 to 134 °C; to `O=[N+]([O-])c1ccc2c(c1)C(c1ccccc1)=NCc1cc(CO)nn1-2`, 192 to 194 °C.
In turn, `Cc1cccc(C)c1N1CCc2c(C)nc3ccccc3c21` displayed a melting point of 149 to 152 °C.
`Cc1ccccc1OCCC1CCN(c2cc(Cl)nnc2Cl)CC1`: the melting point lay within 106 to 108 °C.
Compound `O=C(O)c1ccccc1Sc1ccccc1[N+](=O)[O-]` gave a melting point of 169 to 171 °C.
Next, `CCCCc1oc2ccc(C(N)=O)cc2c1C(=O)c1ccc(OCCCN(CCCC)CCCC)cc1`: 90 to 92 °C.
In turn, `COC(=O)NNS(=O)(=O)c1ccccc1` came in with a melting point of 149 to 154 °C.
Compound `COC(=O)c1nc(C2CC2)nc(N)c1Cl` displayed a melting point of 147 to 148 °C.
The compound `CCOC(=O)c1cc(O)c2nc(C)c(C)n2c1` yielded a melting point of 219 to 221 °C.
The compound `CCCCn1c(=O)n(C(C)C)c(=O)c2[nH]c(C)nc21` gave a melting point of 172 to 173 °C.
Take `CC(=O)Nc1ccc(-c2cc(C(=O)c3ccccc3)sc2N2CCOCC2)cc1`: the melting point was determined as 165 °C.
Next, `CN(C(=O)OC(C)(C)C)[C@H](Cc1ccc2ccccc2c1)C(=O)N1CCN(S(C)(=O)=O)C[C@H]1Cc1ccccc1`: 76 to 80 °C.
To `NC1CCc2ccccc2N(CC(=O)OCc2ccccc2)C1=O` (configuration not stated) belongs 105 to 107 °C; to `CCCCNS(=O)(=O)c1cc(C(=O)Cl)ccc1Cl`, 110 °C.
Turning to `O=C(CBr)CCc1ccccc1`, the melting point lay within 39 to 40 °C.
To `CC(O)c1ccc(C(C)(C)C)cc1` (single isomer, unassigned; (+)) belongs 85 °C; to `CC(=Cc1ccc(-n2cnc3c2CCCC3)cc1)[N+](=O)[O-]`, 147 to 149 °C.
As to `O=C(O)C=Cc1ccc(-c2cnc(CSCCOc3ccccc3)o2)cc1`, the melting point was in the range of 150 to 153 °C.
`CC(C)c1cccc(C(C)C)c1NC(=O)CNC(c1ccccc1)c1ccc(C(=O)O)cc1` (configuration not stated): the melting point lay in the range of 245 to 246 °C.
To `CNC(=O)N1CC(Oc2ccc(C(F)(F)F)cc2Cl)C1` belongs 160 to 161 °C; to `NC(=O)Cc1cccc2c(-c3ccccc3)onc12`, 191 to 192 °C.
Turning to `CCn1c(=O)c2[nH]c(C(C)=Cc3ccccc3)nc2n(CC)c1=O`, the melting point was 251 to 252 °C.
For `Cc1ccc(C(=O)NCCO)cc1-n1c(C)cc(OCc2ccccc2CNC(=O)Nc2cc(C(C)(C)C)nn2-c2cccc(OCCO)c2)c(Cl)c1=O`, the melting point is 162 to 163 °C.
Compound `CC(C)CCN1C(=O)C(NC(=O)Oc2cccc(N(C)C)c2)C(=O)N(c2ccccc2)c2cc(F)ccc21` (configuration not stated) gave a melting point of 229 to 230 °C.
The compound `COCCNC(=S)n1nc(Oc2ncc(C(F)(F)F)cc2Cl)cc1C` gave a melting point of 108 to 109 °C.
To `CCOC(=O)C(C)NC(=O)N(N(CCCl)S(C)(=O)=O)S(C)(=O)=O` (configuration not stated) belongs 111 to 112 °C.
In turn, `COc1cc(N)ccc1-c1cnn(C)c1` registered a melting point of 129 to 131 °C.
Regarding `CC(=O)OC1CSC(Oc2cccc(-c3ccncc3)n2)C(OC(C)=O)C1OC(C)=O` (configuration not stated), the melting point is 137 °C.
In turn, `Cn1c(COc2ccc(C#N)cc2)nc2nc(C=O)ccc21` showed a melting point of 231 to 234 °C.
`O=C(c1ccc([N+](=O)[O-])cc1)N1Cc2ccnn2Cc2ccccc21`: the melting point fell in the range of 227 to 229 °C.
`CCCCCCCCCCc1ccc(NC(=O)c2cc(Cl)cc(Cl)c2O)cc1` came in with a melting point of 90 to 91 °C.
On to `CC(=O)n1nc(-c2c(C)cc(C)c([N+](=O)[O-])c2C)n2nc(C(C)(C)C)cc12`, for which the melting point lay in the range of 169 to 171 °C.
Consider `CCCCCCCc1ccc(C(=O)c2ccc(C(=O)O)cc2)cc1`, for which the melting point is 181 °C.
Next, `CCN1C=C(C(=O)O)C(=O)CC1c1ccc2c(c1)OCO2` (configuration not stated): 173 to 175 °C; `CCC1=C(C)CN(C(=O)NC2COc3cc(OC)c(S(=O)(=O)NC(=S)NC)cc3C2)C1=O` (configuration not stated): 205 °C; `CCOC(=O)c1[nH]c(C(=O)OCC)c(C)c1C`: 66 to 68 °C.
To `CS(=O)(=O)OCCc1ccc(OCc2coc(/C=C/c3ccccc3)n2)cc1` belongs 121 to 122 °C; to `C[Si](Cn1nc[nH]c1=S)(c1ccccc1F)c1ccccc1F`, 105 °C.
For the compound `COc1ccccc1OCCCCCOc1ccc(C#N)cc1`, the melting point fell in the range of 61 to 63 °C.
To `C=CCn1c(Cc2ccccc2)c(CC)c(=O)[nH]c1=O` belongs 164 to 165 °C; to `C[C@@H](NC(=O)c1ccc(-c2ccc(Cl)cc2)cc1)[C@](O)(Cn1cncn1)c1ccc(F)cc1F`, 173 to 174 °C; to `CC(C)C=CC1(C(F)(F)F)OCC(=O)Nc2ccc(F)c(F)c21` (configuration not stated), 159 to 160 °C.
To `CC(=O)N[C@H](CC(N)=O)C(=O)Nc1ccc(-c2ccc(C(=O)O)c(=O)[nH]2)cc1` belongs 265 to 266 °C; to `COc1cc(OCc2nc(-c3ccco3)oc2C)ccc1CO`, 117 to 118 °C; to `CC(=O)NC[C@H]1CN(c2ccc(N3CCC(c4noc(C)n4)CC3)c(F)c2)C(=O)O1`, 136 to 138 °C.
Compound `CCOC(=O)c1ccc(NCCCCCc2ccccc2)cc1` registered a melting point of 63 to 64 °C.
On to `Cc1noc(NC(=O)N2CCN(c3cncc(-c4ccc(F)cc4F)n3)CC2)c1C`, for which the melting point was 225 to 226 °C.
The compound `CCOc1cc(CCC2OC(=O)NC2=O)ccc1O` (configuration not stated) gave a melting point of 154 to 155 °C.
To `O=c1[nH]c2cccc(C(F)(F)F)c2c(=O)o1` belongs 232 to 233 °C; to `O=C1c2cccc3c(N4CCCC4)c([N+](=O)[O-])cc(c23)C(=O)N1O`, 249 to 252 °C; to `COc1cc2c(=O)ccn(C)c2cc1OC`, 169 to 173 °C.
To `FC(F)(F)c1cc(Cl)c2nc(N3CCN(c4ncccc4C(F)(F)F)CC3)[nH]c2c1` belongs 204 °C.
`CSCCC(NC(=O)OCc1ccccc1)C(=O)Nc1nncs1` (racemic) returned a melting point of 155 to 159 °C.
`Cc1c(Cl)c(Oc2ncc(C(F)(F)F)cc2Cl)nn1C(=O)NC(C)C`: the melting point is 57 to 59 °C.
For `CNC1(c2ccccc2Cl)C(=O)Nc2ccc(C)cc21` (configuration not stated), the melting point was in the range of 186 to 187 °C.
As to `C[C@@H](Cn1ncc2ccc(O)c(Br)c21)NC(=O)OCc1ccccc1`, the melting point amounted to 40 °C.
Next, `O=C(Nc1ccc(Cl)cc1)NS(=O)(=O)c1ccc2c(c1)OCCO2`: 191 °C; `CCc1ccc(C(=O)Cc2ccc(Br)cc2)cc1`: 146 °C; `COC12CC(C)(C)C(O1)C(OC(=O)c1ccc([N+](=O)[O-])cc1)C=C2C` (configuration not stated): 140 to 141 °C.
Next, `CCOC(=O)c1ccc(NS(C)(=O)=O)c(N)c1`: 151 °C; `N#Cc1ccc2oc(-c3ccc(O)cc3)cc(=O)c2c1`: 296 to 298 °C.
As for `COc1cc(-c2c(-c3ccc(F)cc3)nc3ccc(N4CCN(C)CC4)nn23)ccn1`, the melting point was 189 to 194 °C.
As for `O=C(c1ccc(CCCCc2ccccc2)cc1)N(O)Cc1ccccc1`, the melting point lay within 83.5 to 85 °C.
